Tests used:
Type in all cases: cell-based, human
β-actin gene expression = test: RT-PCR analysis for expression of the housekeeping gene β-actin after DAC treatment; conditions: MCF7, MDA-MB 231, T47D, Calu6 cell lines, 1 μM DAC, 72 h
Experimental: (§1) Reverse transcription-PCR (RT-PCR) was conducted on cDNA from three breast cancer cell lines (MCF7, MDA-MB 231, and T47D) and one lung cancer cell line (Calu6) to determine the relationship between methylation of the PAX5 α and β genes and transcription. […] Reference is made to FIG. 3A, showing an MSP analysis of breast and lung cancer cell lines. Bisulfite-modified DNA was amplified with stage-2 primers specific for methylated alleles. […] Expression of the PAX5 α and β genes was restored in non-expressing cell lines following DAC treatment. Expression of the β-actin gene was determined as a control for RNA integrity.
(§2) 5-Aza-2′-deoxycytidine Treatment and RT-PCR. Re-expression studies were performed using three breast cancer cell lines (MCF7, MDA-MB-23 1, and T47D) and one lung cancer cell line (Calu6). […] The expression of the PAX5 α and β transcripts were determined by reverse transcription (RT)-PCR using the exon 1α forward primer (5′-[…]-3′) and the exon 1β forward primer (5′-[…]-3′) with an exon 2 reverse primer (5′-[…]-3′). β-actin was also amplified as a control for RNA integrity.
(§3) PCR amplification was performed at 94° C. for 10 min; then 35 cycles of 94° C. for 30 s, 64° C. for 30 s, and 72° C. for 30 s; and a 5-min final extension at 72° C. PCR products were analyzed on a 3% agarose gel containing ethidium bromide and visualized under UV illumination.

PAX5 α gene expression = test: RT-PCR analysis for expression of the PAX5 α gene after DAC treatment; conditions: for PAX5 α transcript expression: 1 μM DAC, 72 h
Experimental: as §1
5-Aza-2′-deoxycytidine Treatment and RT-PCR. Re-expression studies were performed using three breast cancer cell lines (MCF7, MDA-MB-23 1, and T47D) and one lung cancer cell line (Calu6). Cell lines were treated for 3 days in culture media with 1 μM DAC (Sigma Chemical Co.). Total RNA was prepared using Trizol (Life Technologies, Inc.), and 3 μg aliquots were reverse-transcribed using the Superscript kit (Life Technologies, Inc.). The expression of the PAX5 α and β transcripts were determined by reverse transcription (RT)-PCR using the exon 1α forward primer (5′-[…]-3′) and the exon 1β forward primer (5′-[…]-3′) with an exon 2 reverse primer (5′-[…]-3′). β-actin was also amplified as a control for RNA integrity.
as §3

PAX5 β gene expression = test: RT-PCR analysis for expression of the PAX5 β gene after DAC treatment
Experimental: as §1, §2, §3

[1] = non-expressing breast and lung cancer cell lines, 1 μM DAC for 72 h (FIG. 3B)

Nc1ncn([C@H]2C[C@H](O)[C@@H](CO)O2)c(=O)n1 [DAC, 5-Aza-2′-deoxycytidine]
expression of the housekeeping gene β-actin (β-actin gene expression): did not affect
PAX5 α transcript expression (PAX5 α gene expression; Calu6 lung cancer cell line): increased expression
PAX5 α transcript expression (PAX5 α gene expression; MDA-MB231 breast cancer cell line): restored expression
PAX5 α transcript expression (PAX5 α gene expression; T47D breast cancer cell line): restored expression
Expression of the PAX5 α gene (PAX5 α gene expression; [1]): restored
Expression of the PAX5 β gene (PAX5 β gene expression; [1]): restored
PAX5 β transcript expression (PAX5 β gene expression; the other three cell lines (MCF7, MDA-MB 231, Calu6), 1 μM DAC, 72 h): restored expression
